This is an account of results in patent US20090192192A1, “INHIBITORS OF BIOFILM FORMATION OF GRAM-POSITIVE AND GRAM-NEGATIVE BACTERIA” (priority 2007, published 2009).

The term inhibition denotes the share of the control response that was lost under treatment.

The test concerns Pseudomonas aeruginosa PAO1. The test is described as follows: MBEC assay, biofilm formation of P. aeruginosa PAO1. Format: cell-based. The note with it: compound concentration 100 μM, class symbols. How it is done:
The compound to be tested was dissolved in DMSO to obtain a concentration that was 100 times that of the final concentration required (1 mM for the 10 μM assay and 10 mM for the 100 μM assay). 1.5 μL of the above solution was placed into each well of a 96 well plate (final volume in each well=150 μL, final DMSO concentration of 1% (v/v)).
To grow the organism and form a biofilm, a cryogenic stock of the test organism (at −70° C.) was used. A first sub-culture was streaked out onto TSA (tryptic soy agar), upon which the plate was incubated at 35±2° C. for 24 hours and stored wrapped in parafilm at 4° C. afterwards. From this first sub-culture, a second sub-culture was streaked out onto TSA. The plate was incubated at 35±2° C. for 24 hours. The second sub-culture was used within 24 hours starting from the time it was first removed from incubation. Using the second sub-culture an inoculum in 3 mL sterile water that matches a 0.5 McFarland Standard (1.5×10^8 cells per mL) was created in a glass test tube using a sterile cotton swab. 2.2 mL of this solution was diluted in 22 mL 100% TSB (tryptic soy broth) medium to a cell density of approximately […]. The diluted organism was inverted 3-5 times to achieve uniform mixing of the organism. One sample (100 μl) of the diluted organism was used for an inoculum check by serially diluting and spot plating on TSA.
To prepare a challenge plate, […] of the diluted organism was added to each well of a 96 well plate except the sterility control wells. The test compounds were added to the wells to make up final concentrations of 10 μM and […] (1.5 μL/well) in the designated location in the test plate. 128.5 μL of 100% universal neutralizer (1% Tween 80 in Cation Adjusted Mueller Hinton Broth, CAMHB) was placed in each of the wells. 130 μL of media was added to the growth control wells. 128.5 μL of media+1.5 μL of DMSO were added to a second set of growth control wells. 150 μL of media was added to the sterility controls. Each sample was run in triplicate. The plate was covered by a lid with a peg per well and wrapped in parafilm and placed on a shaker in a humidified incubator (GeneVac) at 35±+2° C. for 24 hours set at 110 rpm.
Rinse plate(s) of 0.9% saline (200 μL per well) were prepared in a sterile 96 well microtitre plate. Lid-associated pegs were rinsed in 0.9% saline for approximately 1-2 minutes. The peg lid was transferred to the recovery media (1.0% Tween 80 in CAMHB) then sonicated for 30 minutes to dislodge surviving biofilm. Following sonication, 100 μL from each well of the 96 well plate was placed into the first 12 wells of the first row of a 96 well microtiter plate. 180 μl of 0.9% sterile saline was placed in the remaining rows. A serial dilution (10^0-10^7) was prepared by moving 20 μl down each of the 8 rows. 20 μl from each well was removed and spot plated on a prepared TSA. In the remaining recovery plate, 100 μl of fresh growth media (1.0% Tween 80 in CAMHB) was placed in each well to replace the amount removed. The recovery plate was covered with a regular lid and incubated at 35±2° C. for 24 hours and read visually to confirm antimicrobial activity of the test compounds.
The compounds of the present disclosure have been tested regarding their efficiency to inhibit biofilm formation of Staphylococcus aureus U of C#18 (MRSA), Staphylococcus aureus 456 (MRSA), Staphylococcus epidermidis RP62A, and Pseudomonas aeruginosa PAO1.

`CCCCCCCCCOCC(=O)Nc1ccnn1CC` [Example 105, N-(1-ethylpyrazol-5-yl)-2-(nonyloxy)acetamide]: the inhibition at 100 µM is more than 50%.
Then `CCCCCCCCCCCC(=O)N(C)c1ccc(F)cc1` [Example 20, N-(4-fluorophenyl)-N-methyldodecanamide], with more than 50%; and `CCCCCCCCCC(=O)N[C@H]1CCC[C@H]1C(=O)O` (relative stereo) [Example 36, cis-2-decanamidocyclopentanecarboxylic acid], with less than 20%; and `CCCCCCCCCCCC(=O)N(C)c1ccccc1` [Example 14, N-methyl-N-phenyldodecanamide], with more than 50%.
With `COCCOCCOCC(=O)N(C)c1ccc(F)cc1` [Example 125, N-(4-fluorophenyl)-2-(2-(2-methoxyethoxy)ethoxy)-N-methylacetamide] the figure was less than 20%; with `CCCCCCCCCCCC(=O)N[C@@H]1CCCC[C@H]1O` (relative stereo) [Example 35, trans-N-(2-hydroxycyclohexyl)dodecanamide], 20 to 50%; with `CCCCCCCCCCCC(=O)N1CCCC(C(N)=O)C1` (centres unmarked) [Example 130, 1-dodecanoylpiperidine-3-carboxamide], more than 50%.
With `CCCCCCCCCCCC(=O)N1CCCC(C(=O)N2CCCC2)C1` (centres unmarked) [Example 136, 1-(3-(pyrrolidine-1-carbonyl)piperidin-1-yl)dodecan-1-one] the figure was less than 20%; with `CCCCCCCCCCNC(=O)Nc1cc(-c2ccccc2)nn1C` [Example 71, 1-decyl-3-(1-methyl-3-phenylpyrazol-5-yl)urea], less than 20%; with `CCCCCCCCOCCC(=O)Nc1nnc(-c2ccccc2)s1` [Example 118, 3-(octyloxy)-N-(5-phenyl-1,3,4-thiadiazol-2-yl)propanamide], less than 20%.
`CCCCCCCCCCNC(=O)Nc1cc(C(C)(C)C)n[nH]1` [Example 68, 1-(3-tert-butylpyrazol-5-yl)-3-decylurea] displayed an inhibition at 100 µM of 20 to 50%.
`CCCCCCCCOCCC(=O)N[C@@H](C)c1ccccc1` [Example 113, (S)-3-(octyloxy)-N-(1-phenylethyl)propanamide] had an inhibition at 100 µM of more than 50%.
With `CCCCCCCCCOCC(=O)Nc1cc(C(C)(C)C)nn1C` [Example 107, N-(3-tert-butyl-1-methylpyrazol-5-yl)-2-(nonyloxy)acetamide] the figure was more than 50%; with `CCCCCCCCCCCCNC(=O)Nc1cc(C)nn1C` [Example 83, 1-(1,3-dimethylpyrazol-5-yl)-3-dodecylurea], 20 to 50%; with `CCCCCCCCCCCC(=O)Nc1ccc(F)cc1C(F)(F)F` [Example 24, N-(4-fluoro-2-(trifluoromethyl)phenyl)dodecanamide], less than 20%.
With `CCCCCCCCNC(=O)Nc1cc(C(C)(C)C)nn1C` [Example 46, 1-(3-tert-butyl-1-methylpyrazol-5-yl)-3-octylurea] the figure was more than 50%.
Then `CCCCCCCCCCCCNC(=O)Nc1cc(-c2ccccc2)nn1C` [Example 86, 1-dodecyl-3-(1-methyl-3-phenylpyrazol-5-yl)urea], with less than 20%.
Regarding `CCCCCCCCOCCC(=O)Nc1cc(C(C)(C)C)nn1C` [Example 116, N-(3-tert-butyl-1-methylpyrazol-5-yl)-3-(octyloxy)propanamide], the inhibition at 100 µM is more than 50%.
For the molecule `CCCCCCCCCC(=O)NC(=O)N[C@@H](C)c1ccccc1` [Example 97, (S)-N-(1-phenylethylcarbamoyl)decanamide], the inhibition at 100 µM was in the range of 20 to 50%.
Then `CCCCCCCCCCCCCCCCNC(=O)Nc1cc(C(C)(C)C)nn1C` [Example 91, 1-(3-tert-butyl-1-methylpyrazol-5-yl)-3-hexadecylurea], with 20 to 50%; and `CCCCCCCCNC(=O)Nc1cc(C2CC2)nn1C` [Example 45, 1-(3-cyclopropyl-1-methylpyrazol-5-yl)-3-octylurea], with 20 to 50%; and `CCCCCCCCCC(=O)N1CCCC(C(=O)N(CC)CC)C1` (centres unmarked) [Example 135, 1-decanoyl-N,N-diethylpiperidine-3-carboxamide], with more than 50%.
Regarding `CCCCCCCCCCCCCCCCCCNC(=O)Nc1cc(C(C)(C)C)nn1C` [Example 94, 1-(3-tert-butyl-1-methylpyrazol-5-yl)-3-octadecylurea], the inhibition at 100 µM was 20 to 50%.
`CCCCCCCCCOCC(=O)Nc1ccc(F)cc1C(F)(F)F` [Example 103, N-(4-fluoro-2-(trifluoromethyl)phenyl)-2-(nonyloxy)acetamide] showed an inhibition at 100 µM of 20 to 50%.
With `CCN(CC)C(=O)C1CCCN(C(=O)CCCCCCN(C)CCN(C)C)C1` (centres unmarked) [Example 139, 1-(7-((2-(dimethylamino)ethyl)(methyl)amino)heptanoyl)-N,N-diethylpiperidine-3-carboxamide], the inhibition at 100 µM is less than 20%.
Then `CCCCCCCCCCCC(=O)N1CCC(C(=O)N2CCCC2)C1` (centres unmarked) [Example 149, 1-(3-(pyrrolidine-1-carbonyl)pyrrolidin-1-yl)dodecan-1-one], with more than 50%; and `CCCCCCCCCCNC(=O)Nc1ccccc1F` [Example 49, 1-decyl-3-(2-fluorophenyl)urea], with less than 20%.
With `CCCCOCCOCC(=O)Nc1cc(-c2ccccc2)nn1C` [Example 124, 2-(2-butoxyethoxy)-N-(1-methyl-3-phenylpyrazol-5-yl)acetamide] the figure was 20 to 50%.
As to `CCCCCCCCNC(=O)CC(=O)N1CCCC(C(=O)N(CC)CC)C1` (centres unmarked) [Example 144, N,N-diethyl-1-(3-(octylamino)-3-oxopropanoyl)piperidine-3-carboxamide], the inhibition at 100 µM lay in the range of 20 to 50%.
Then `CCCCCCCCCCCC(=O)Nc1ccccc1` [Example 13, N-phenyldodecanamide], with less than 20%; and `CCCCCCCCCOCC(=O)Nc1cc(C(C)(C)C)on1` [Example 109, N-(5-tert-butylisoxazol-3-yl)-2-(nonyloxy)acetamide], with 20 to 50%.
With `CCCCCCCCCCCCCCCCNC(=O)Nc1cc(C2CC2)nn1C` [Example 90, 1-(3-cyclopropyl-1-methylpyrazol-5-yl)-3-hexadecylurea] the figure was less than 20%; with `CCCCCCCCCCCCCCCCCCNC(=O)Nc1cc(C)nn1C` [Example 92, 1-(1,3-dimethylpyrazol-5-yl)-3-octadecylurea], less than 20%.
With `CCCCCCCCOCCC(=O)Nc1cc(C2CC2)nn1C` [Example 115, N-(3-cyclopropyl-1-methylpyrazol-5-yl)-3-(octyloxy)propanamide] the figure was more than 50%; with `CCCCCCCCCC(=O)NC(=O)Nc1cc(C)nn1C` [Example 100, N-(1,3-dimethylpyrazol-5-ylcarbamoyl)decanamide], 20 to 50%.
`CCCCCCCCCOCC(=O)N(C)c1ccc(F)cc1` [Example 102, N-(4-fluorophenyl)-N-methyl-2-(nonyloxy)acetamide] came in with an inhibition at 100 µM of 20 to 50%.
Then `CCCCCCCCCCCC(=O)N(C)c1ccccc1F` [Example 16, N-(2-fluorophenyl)-N-methyldodecanamide], with more than 50%; and `CCCCCCCCCCCNC(=O)Nc1cc(-c2ccccc2)nn1C` [Example 82, 1-(1-methyl-3-phenylpyrazol-5-yl)-3-undecylurea], with less than 20%; and `CCCCCCCCCC(=O)NC(=O)Nc1cc(C)ns1` [Example 101, N-(3-methylisothiazol-5-ylcarbamoyl)decanamide], with 20 to 50%.
Then `CCCCCCCCCCCC(=O)N1CCC(C(=O)Nc2ccccc2)C1` (centres unmarked) [Example 151, 1-dodecanoyl-N-phenylpyrrolidine-3-carboxamide], with 20 to 50%; and `CCCCCCCCCCNC(=O)N(C)[C@H](C)c1ccccc1` [Example 60, (R)-3-decyl-1-methyl-1-(1-phenylethyl)urea], with more than 50%.
